Like-named read-outs stand apart in the source and are kept apart here.
Biological target: T1, human GR (Homo sapiens, UniProt P04150)
T1 sequence (P04150 1-777): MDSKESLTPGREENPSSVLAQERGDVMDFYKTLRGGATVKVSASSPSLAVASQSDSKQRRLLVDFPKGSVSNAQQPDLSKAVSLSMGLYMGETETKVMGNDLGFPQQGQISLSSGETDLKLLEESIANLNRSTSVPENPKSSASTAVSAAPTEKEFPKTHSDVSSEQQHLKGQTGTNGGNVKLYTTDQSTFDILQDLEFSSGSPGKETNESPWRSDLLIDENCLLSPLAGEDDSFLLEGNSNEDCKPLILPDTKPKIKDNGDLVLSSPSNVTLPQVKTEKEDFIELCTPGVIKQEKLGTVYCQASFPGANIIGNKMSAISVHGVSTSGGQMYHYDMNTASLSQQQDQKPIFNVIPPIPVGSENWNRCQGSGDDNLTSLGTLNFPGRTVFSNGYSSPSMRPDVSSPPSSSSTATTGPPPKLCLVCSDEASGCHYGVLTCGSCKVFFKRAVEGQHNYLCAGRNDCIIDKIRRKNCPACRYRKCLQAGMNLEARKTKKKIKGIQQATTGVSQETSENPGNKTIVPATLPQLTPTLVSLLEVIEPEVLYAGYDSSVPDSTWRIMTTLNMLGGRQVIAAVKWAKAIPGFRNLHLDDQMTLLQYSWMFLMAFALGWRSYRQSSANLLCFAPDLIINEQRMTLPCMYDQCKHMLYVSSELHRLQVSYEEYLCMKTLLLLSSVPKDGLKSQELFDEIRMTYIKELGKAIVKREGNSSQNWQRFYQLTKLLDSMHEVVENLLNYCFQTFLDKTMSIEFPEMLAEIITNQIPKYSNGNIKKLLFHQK
Assay: Transrepression Assay (GITAR), TNFα-β-lactamase reporter in U937 cells
Type: cell-based
Design: U937 cells contain an endogenous glucocorticoid receptor (GR); endogenous in cells; host or cells: U937 cells stably transfected with the TNF-alpha promoter/beta-lactamase reporter
Settings: for GITAR > GRAMM % SEP: GITAR Emax minus GRAMMER Emax; for EC50: U937 cells, inflection point, read-out: Transrepression U937 Cells GITAR IP
Description: This assay assesses the ability of test compounds to control transcription from the TNFα-β-lactamase reporter gene in U937 cells, a human myelomonocytic leukemia cell line that naturally expresses the human GR. The assay measures compound dependent-repression of the TNFa promoter linked to a reporter gene.
The human U937 cells that had been stablely transfected with the TNF-α promoter driving β-lactamase are used for this assay. U937 cells contain an endogenous glucocorticoid receptor (GR). Cells are maintained in RPMI 1640 Growth medium (Gibco Cat#11875-093) containing 25 mM HEPES, 10% FBS, 2 mM L-Glutamine, 1 mM Sodium pyruvate, 25 μg/ml Gentamicin (Gibco Cat#15710-064), 1:1000 2-Mercaptoethanol (Gibco Cat#21985-023) and 0.8 mg/ml G418 (Gibco Cat#10131-027). The density of the cells in the flask needs to be about 1×10^6−3×10^6/ml at the time of harvest. Usually, the cells are split to 1.2˜1.4×10^5/ml (1:10) 3 days prior to the assay. 50,000 cells/well are plated in 96 well black-walled plates the day of assay. Test compounds are added 10 μL/well, and cells are incubated at 37° C. for 30˜45 min. For assaying compounds, first dilute 1:10 in DMSO to make 1 mM, then further dilute 1:100 in medium to make 10× stock prior to adding to the cells. Add 50 ng/mlPMA (Sigma, cat# P8139) 10 μL/well to a final concentration 5 ng/ml, and 1 μg/ml LPS (Sigma, cat# L4130) 10 μL/well to a final concentration 100 ng/ml. Incubate cells at 37° C. overnight for ˜18 hr. PMA is stored frozen as 100 μg/ml stock in DMSO. Dilute 1:10 in DMSO for a working stock of 10 μg/ml and store at −20 C. For assaying, dilute the 10 μg/ml working stock 1:200 in medium to make a 10× solution (50 ng/ml). Store frozen LPS at 1 mg/ml in PBS, dilute 1:1000 in medium to make 10× (1 μg/ml) for the assay. Add 6× loading buffer (CCF2-AM) 20 μL/well, and incubate at room temperature for 70˜90 min. […] The activity repressed by 100 nM dexamethasone alone is set as 100% activity.

[1] = U-937, U937 cells, maximum activity, read-out: Transrepression U937 Cells GITAR Emax
[2] = U-937, activity repressed by 100 nM dexamethasone alone set as 100%, read-out: maximal activity in the transrepression (GITAR) assay

| GITAR > GRAMM % SEP | EC50 | Emax [1] | Emax [2] | SMILES |
| --- | --- | --- | --- | --- |
| 25.4% | 0.128 µM | 90.8% | > 5% | Cc1noc(C)c1S(=O)(=O)N(CCc1ccccc1O)C[C@H]1CCC2=Cc3c(cnn3-c3ccc(F)cc3)C[C@@]21C [Example 123, N-{[(4αR,5S)-1-(4-fluorophenyl)-4α-methyl-1,4,4α,5,6,7-hexahydrocyclopenta[f]indazol-5-yl]methyl}-N-[2-(2-hydroxyphenyl)ethyl]-3,5-dimethylisoxazole-4-sulfonamide] |
| 41.6% | 0.564 µM | 77.8% | > 5% | C[C@]12Cc3cnn(-c4ccc(F)cc4)c3C=C1CC[C@@H]2CN(CC=O)S(=O)(=O)c1ccccc1F [Example 158, 2-fluoro-N-{[(4αR,5S)-1-(4-fluorophenyl)-4α-methyl-1,4,4α,5,6,7-hexahydrocyclopenta[f]indazol-5-yl]methyl}-N-(2-oxoethyl)benzenesulfonamide] |
| 24.6% | 0.185 µM | 70.5% | > 5% | C[C@]12Cc3cnn(-c4ccc(F)cc4)c3C=C1CC[C@@H]2CN(CCc1ccccc1F)S(=O)(=O)Cc1ccccc1C(F)(F)F [Example 108, N-[2-(2-fluorophenyl)ethyl]-N-{[(4αR,5S)-1-(4-fluorophenyl)-4α-methyl-1,4,4α,5,6,7-hexahydrocyclopenta[f]indazol-5-yl]methyl}-1-[2-(trifluoromethyl)phenyl]methanesulfonamide] |
| 18.2% | 0.0778 µM | 91.5% | > 5% | COc1ccccc1CCN(C[C@H]1CCC2=Cc3c(cnn3-c3ccc(F)cc3)C[C@@]21C)S(=O)(=O)CC(F)(F)F [Example 120, 2,2,2-trifluoro-N-{[(4αR,5S)-1-(4-fluorophenyl)-4α-methyl-1,4,4α,5,6,7-hexahydrocyclopenta[f]indazol-5-yl]methyl}-N-[2-(2-methoxyphenyl)ethyl]ethanesulfonamide] |
| 34.1% | 0.575 µM | 55.3% | > 5% | COc1ccccc1CCN(C[C@H]1CCC2=Cc3c(cnn3-c3ccc(F)cc3)C[C@@]21C)S(=O)(=O)Cc1cccnc1 [Example 125, N-{[(4αR,5S)-1-(4-fluorophenyl)-4α-methyl-1,4,4α,5,6,7-hexahydrocyclopenta[f]indazol-5-yl]methyl}-N-[2-(2-methoxyphenyl)ethyl]-1-pyridin-3-ylmethanesulfonamide] |
| 26.7% | 0.93 µM | 45% | > 5% | Cc1noc(C)c1S(=O)(=O)NC[C@H]1CCC2=Cc3c(cnn3-c3ccc(F)cc3)C[C@@]21C [Example 161, N-{[(4αR,5S)-1-(4-fluorophenyl)-4α-methyl-1,4,4α,5,6,7-hexahydrocyclopenta[f]indazol-5-yl]methyl}-3,5-dimethylisoxazole-4-sulfonamide] |
| 2.5% | 0.0441 µM | 85.3% | > 5% | C[C@]12Cc3cnn(-c4ccc(F)cc4)c3C=C1CC[C@@H]2CN(CCc1ccccc1F)S(=O)(=O)Cc1cccc(Cl)c1 [Example 106, 1-(3-chlorophenyl)-N-[2-(2-fluorophenyl)ethyl]-N-{[(4αR,5S)-1-(4-fluorophenyl)-4α-methyl-1,4,4α,5,6,7-hexahydrocyclopenta[f]indazol-5-yl]methyl}methanesulfonamide] |
| 23.1% | 0.206 µM | 89.1% | > 5% | Cc1noc(C)c1S(=O)(=O)N(CC1CC1)C[C@H]1CCC2=Cc3c(cnn3-c3ccc(F)cc3)C[C@@]21C [Example 11, N-(cyclopropylmethyl)-N-{[(4αR,5S)-1-(4-fluorophenyl)-4α-methyl-1,4,4α,5,6,7-hexahydrocyclopenta[f]indazol-5-yl]methyl}-3,5-dimethylisoxazole-4-sulfonamide] |

The remaining lines, values behind:

| SMILES | GITAR > GRAMM % SEP | EC50 | Emax [1] | Emax [2] |
| --- | --- | --- | --- | --- |
| C[C@]12Cc3cnn(-c4ccc(F)cc4)c3C=C1CC[C@@H]2CN(CCc1ccccn1)S(=O)(=O)CCN1C(=O)c2ccccc2C1=O [Example 152, 2-(1,3-dioxo-1,3-dihydro-2H-isoindol-2-yl)-N-{[(4αR,5S)-1-(4-fluorophenyl)-4α-methyl-1,4,4α,5,6,7-hexahydrocyclopenta[f]indazol-5-yl]methyl}-N-(2-pyridin-2-ylethyl)ethanesulfonamide] | 21.0% | 1.03 µM | 23% | > 5% |
| C[C@]12Cc3cnn(-c4ccc(F)cc4)c3C=C1CC[C@@H]2CN(CC(O)c1ccncc1)S(=O)(=O)CC(F)(F)F (stereo partly drawn) [Example 144, 2,2,2-trifluoro-N-{[(4αR,5S)-1-(4-fluorophenyl)-4α-methyl-1,4,4α,5,6,7-hexahydrocyclopenta[f]indazol-5-yl]methyl}-N-(2-hydroxy-2-pyridin-4-ylethyl)ethanesulfonamide] | 18.1% | 0.334 µM | 91.6% | > 5% |
| C[C@]12Cc3cnn(-c4ccc(F)cc4)c3C=C1CC[C@@H]2CN(CCc1ccccc1F)S(=O)(=O)CCN1C(=O)c2ccccc2C1=O [Example 121, 2-(1,3-dioxo-1,3-dihydro-2H-isoindol-2-yl)-N-[2-(2-fluorophenyl)ethyl]-N-{[(4αR,5S)-1-(4-fluorophenyl)-4α-methyl-1,4,4α,5,6,7-hexahydrocyclopenta[f]indazol-5-yl]methyl}ethanesulfonamide] | 17.9% | 0.156 µM | 33.8% | > 5% |
| C[C@]12Cc3cnn(-c4ccc(F)cc4)c3C=C1CC[C@@H]2CN(CCc1ccccn1)S(=O)(=O)Cc1ccccn1 [Example 165, N-{[(4αR,5S)-1-(4-fluorophenyl)-4α-methyl-1,4,4α,5,6,7-hexahydrocyclopenta[f]indazol-5-yl]methyl}-1-pyridin-2-yl-N-(2-pyridin-2-ylethyl)methanesulfonamide] | 23.4% | 0.286 µM | 61.1% | > 5% |
| Cc1nn(C)c(Cl)c1S(=O)(=O)N(CC1CC1)C[C@H]1CCC2=Cc3c(cnn3-c3ccc(F)cc3)C[C@@]21C [Example 7] | 19.7% | 0.389 µM | 56% | > 5% |
| C[C@]12Cc3cnn(-c4ccccc4)c3C=C1CC[C@@H]2CN(CCc1ccccc1F)S(=O)(=O)CC(F)(F)F [Example 137, 2,2,2-trifluoro-N-[2-(2-fluorophenyl)ethyl]-N-{[(4αR,5S)-4α-methyl-1-phenyl-1,4,4α,5,6,7-hexahydrocyclopenta[f]indazol-5-yl]methyl}ethanesulfonamide] | 14.0% | 0.324 µM | 87.6% | > 5% |
| CCCCCc1ccc(S(=O)(=O)N(CC2CC2)C[C@H]2CCC3=Cc4c(cnn4-c4ccc(F)cc4)C[C@@]32C)cc1 [Example 9, N-(cyclopropylmethyl)-N-{[(4αR,5S)-1-(4-fluorophenyl)-4α-methyl-1,4,4α,5,6,7-hexahydrocyclopenta[f]indazol-5-yl]methyl}-4-pentylbenzenesulfonamide] | 15.4% | 0.959 µM | 28.1% | > 5% |
